Consider two molecules from PMC9127232, “Wound Healing Properties of Jasione montana Extracts and Their Main Secondary Metabolites” (Frontiers in Pharmacology, 2022).

The structures appear in SMILES notation.

Test [1] has as its system IL-6 in fibroblast cells (PCS-201-012). The test is described as follows: Cytometric Bead Array, IL-6 secretion. Type of test: cell-based, human. The note with it: 50 μg/mL, 24 h, positive control. On the procedure: (§1) The normal human dermal fibroblast cell line (PCS-201-012) was cultured in DMEM blended with 10% fetal bovine serum (FBS), 10 μg/mL streptomycin, and 10 units/mol penicillin. The cells were cultured in 5% CO2 and fully humidified at 37°C. All tested compounds were dissolved at a final vehicle (DMSO) concentration of not more than 0.5% (v/v). Cells cultured in drug-free DMEM were used as controls, and cells treated with DMSO alone were used as solvent controls. All extracts (JM1–JM6) and the main components of the tested extracts (9, 12, and 22) were analyzed at the following concentrations: 10, 25, 50, 100, 200, and 300 μg/mL. The effect of the tested extracts and fractions (JM1–JM6) as well as 9, 12, and 22 on cytokine (IL-1β, IL-6 IL-8, IL-10, IL-12p70 and TNF) secretion was determined using the Cytometric Bead Array (CBA) Human Inflammatory Cytokine Kit according to the manufacturer’s protocols. After 24 h of incubation with the test samples at concentrations of 10, 25, 50, 100, 200, and 300 μg/mL, fibroblast cells were washed with PBS, trypsinized, resuspended in DMEM and centrifuged (1,200 rpm, 10 min, 4°C). The supernatant was then replaced with 50 μL of assay diluent with the addition of 50 μL of assay beads and 50 μL of PE-labeled antibodies (detection reagent) from the human inflammatory cytokine kit. Incubation was performed for 3 h at room temperature without daylight, after which the fibroblast cells were washed and centrifuged (1,200 rpm, 5 min, 4°C). The cell pellet was resuspended in 300 μL of wash buffer and then immediately subjected to analysis by FCAP Array v3 software on a BD FACSCanto II flow cytometer (both from BD Biosciences Systems, San Jose, CA, United States) calibrated with BD Cytometer Setup and Tracking beads (BD Biosciences, San Diego, CA, United States).

For test [2], the system named is collagen type I in fibroblast cells (PCS-201-012). The test is described as follows: Collagen type I biosynthesis by flow cytometry. Type of test: cell-based, human. The note with it: 50 μg/mL, 24 h; control 1822 ± 62.2. How it is done:
The normal human dermal fibroblast cell line (PCS-201-012) was cultured in DMEM blended with 10% fetal bovine serum (FBS), 10 μg/mL streptomycin, and 10 units/mol penicillin. The cells were cultured in 5% CO2 and fully humidified at 37°C. All tested compounds were dissolved at a final vehicle (DMSO) concentration of not more than 0.5% (v/v). Cells cultured in drug-free DMEM were used as controls, and cells treated with DMSO alone were used as solvent controls. All extracts (JM1–JM6) and the main components of the tested extracts (9, 12, and 22) were analyzed at the following concentrations: 10, 25, 50, 100, 200, and 300 μg/mL. The effect of the tested extracts and fractions (JM1–JM6), as well as their main compounds (9, 12, and 22) on collagen type I biosynthesis was determined using a method of cytometric staining of the surface anti-collagen type I according to the manufacturer’s protocols. Fibroblasts were incubated for 24 h at 37°C with the test samples at concentrations of 10, 25, 50, 100, 200, and 300 μg/mL. Allantoin (50 μg/mL) was used as a positive control. After incubation, fibroblasts were washed with PBS, trypsinized, resuspended in DMEM and centrifuged (1,200 rpm, 10 min, 4°C). The supernatant was removed, and the cells were washed with 2 mL of stain buffer. Then, the cells were incubated for 30 min on ice with 100 µL of stain buffer and 1 µL of antibody. After complete incubation, 2 mL of stain buffer was added. After consecutive centrifugation (1,200 rpm, 10 min, 4°C), the supernatant was removed, the cells were resuspended in 300 µL of buffer and then immediately subjected to analysis on a flow cytometer (BD FACSCanto II flow cytometer, San Jose, CA, United States) calibrated with BD Cytometer Setup and Tracking beads (BD Biosciences, San Diego, CA, United States). The median fluorescence intensity was calculated using FACSDiva software (BD Biosciences Systems, San Jose, CA, United States) and analyzed by FCS Express 7 software (DeNovo Software, Pasadena, CA, United States).

The test system of test [3] is IL-1β in fibroblast cells (PCS-201-012). Put plainly: Cytometric Bead Array, IL-1β secretion. Type of test: cell-based, human. Particulars: 50 μg/mL, 24 h, positive control. On the procedure:
as §1

For test [4], the system named is IL-8 in fibroblast cells (PCS-201-012). Put plainly: Cytometric Bead Array, IL-8 secretion. Type of test: cell-based, human. The note with it: 50 μg/mL, 24 h, positive control. How it is done:
as §1

A short description of test [5]: DPPH radical-scavenging assay. Particulars: 30 min, absorbance 517 nm, mean ± SD. How it is done: All extracts (JM1–JM6) and main components of the tested extracts (9, 12, and 22) were isolated and identified as previously described ([Juszczak et al., 2021]). A total of 130 μL of sample solution at various concentrations was mixed with 70 μL of DPPH (0.2 mg/mL) in a 96-well plate. Then, the reaction mixture was incubated in the dark at room temperature. After 30 min, the absorbance was recorded at 517 nm using a microplate reader (BioTek Instruments microplate spectrophotometer EPOCH 2, Oxfordshire, United Kingdom). A blank solution was prepared by mixing methanol and DPPH solution. Trolox was used as a positive control. The experiment was performed in triplicate. RSA(%)=(C-S)/C×100% where C is the negative control and S is the sample. Concentration of the tested samples, which scavenges 50% of free radicals present in the solution (IC50), was calculated.
On the technique in general: Loss of DPPH colour is used to gauge radical scavenging.

As to `NC(=O)NC1NC(=O)NC1=O` (centres unmarked) [allantoin, reference compound], in test [1], the “IL-6 (in words)” value is “upregulation of IL-6”. For the same molecule, the “collagen type I content, median fluorescence intensity (MFI)” value in test [2] was 1,494 ± 2.8. Besides, in test [3], the “IL-1β levels (in words)” value is recorded as “stimulation of proinflammatory IL-1β levels”. In addition, the “IL-8 expression (in words)” value in test [4] is “decrease in IL-8 expression”.
As for `Cc1c(C)c2c(c(C)c1O)CCC(C)(C(=O)O)O2` (centres unmarked) [Trolox, reference compound], the “DPPH, IC50” value in test [5] is 58.6 ± 0.1 µg/mL.
